From PMC8333425, “Discovery of a dual Ras and ARF6 inhibitor from a GPCR endocytosis screen” (Nature Communications, 2021)

Key:
Assay in all cases: KINOMEscan kinase binding assay
[1] = biological target: T1, 384 kinases from the human genome (Homo sapiens, UniProt O14920); settings: kinase IKK-beta (Entrez IKBKB)
T1 construct: purchased Eurofin/DiscoverX
In short: (§1)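 A panel of 384 human kinases was profiled by KINOMEscan binding in the presence of 10 µM compound. Kinase–ligand binding was given as percent of DMSO control, averaged from duplicates in a single run, with an S(10) selectivity score.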

[2] = biological target: T2, 384 kinases from the human genome (Homo sapiens, UniProt P35626); settings: kinase GRK3 (Entrez ADRBK2)
T2 construct: purchased Eurofin/DiscoverX
T2 sequence (P35626 whole entry): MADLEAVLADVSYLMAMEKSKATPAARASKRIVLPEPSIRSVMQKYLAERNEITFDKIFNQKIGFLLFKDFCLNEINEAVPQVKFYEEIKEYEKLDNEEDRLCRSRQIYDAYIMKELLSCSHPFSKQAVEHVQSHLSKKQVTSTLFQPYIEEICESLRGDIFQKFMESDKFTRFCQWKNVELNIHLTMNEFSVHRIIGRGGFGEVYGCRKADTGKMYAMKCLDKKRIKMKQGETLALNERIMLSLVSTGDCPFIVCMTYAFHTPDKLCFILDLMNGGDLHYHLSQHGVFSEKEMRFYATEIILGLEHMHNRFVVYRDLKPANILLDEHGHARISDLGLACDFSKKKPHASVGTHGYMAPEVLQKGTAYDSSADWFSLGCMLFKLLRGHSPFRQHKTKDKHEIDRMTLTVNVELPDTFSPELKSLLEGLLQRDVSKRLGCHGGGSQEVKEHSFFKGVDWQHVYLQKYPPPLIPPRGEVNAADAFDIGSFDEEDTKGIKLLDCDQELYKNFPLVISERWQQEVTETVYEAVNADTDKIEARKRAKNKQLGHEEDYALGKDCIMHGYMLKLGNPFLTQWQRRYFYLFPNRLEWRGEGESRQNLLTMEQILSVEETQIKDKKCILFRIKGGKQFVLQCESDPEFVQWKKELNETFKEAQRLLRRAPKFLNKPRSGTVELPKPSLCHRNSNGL
In short: as §1

[3] = biological target: T3, 384 kinases from the human genome (Homo sapiens, UniProt Q8NFD2); settings: kinase ANKK1 (Entrez ANKK1)
T3 construct: purchased Eurofin/DiscoverX
In short: as §1

[4] = biological target: T4, 384 kinases from the human genome (Homo sapiens, UniProt Q9UBE8); settings: kinase NLK (Entrez NLK)
T4 construct: purchased Eurofin/DiscoverX
T4 sequence (Q9UBE8 whole entry): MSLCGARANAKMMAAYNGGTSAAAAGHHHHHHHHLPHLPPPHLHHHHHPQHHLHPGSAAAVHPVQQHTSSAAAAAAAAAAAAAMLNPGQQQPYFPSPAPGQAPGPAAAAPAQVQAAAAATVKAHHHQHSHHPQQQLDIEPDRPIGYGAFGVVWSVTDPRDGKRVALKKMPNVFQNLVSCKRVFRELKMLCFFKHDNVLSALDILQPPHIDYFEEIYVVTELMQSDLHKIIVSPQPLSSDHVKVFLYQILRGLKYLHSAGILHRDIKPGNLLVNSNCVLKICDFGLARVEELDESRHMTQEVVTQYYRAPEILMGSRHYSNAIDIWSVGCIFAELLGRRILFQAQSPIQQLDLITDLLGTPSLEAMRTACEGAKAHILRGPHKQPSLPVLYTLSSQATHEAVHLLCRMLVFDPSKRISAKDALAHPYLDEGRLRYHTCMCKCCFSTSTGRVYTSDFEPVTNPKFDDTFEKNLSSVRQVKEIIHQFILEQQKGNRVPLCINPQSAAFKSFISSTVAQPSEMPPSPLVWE
In short: as §1

[5] = biological target: T5, 384 kinases from the human genome (Homo sapiens, UniProt Q9Y2I7); settings: kinase PIKFYVE (Entrez PIKFYVE)
T5 construct: purchased Eurofin/DiscoverX
In short: as §1

[6] = biological target: T6, 384 kinases from the human genome (Homo sapiens, UniProt O94768); settings: kinase DRAK2 (Entrez STK17B)
T6 construct: purchased Eurofin/DiscoverX
In short: as §1

[7] = biological target: T7, 384 kinases from the human genome (Homo sapiens, UniProt Q32MK0); settings: kinase MLCK (Entrez MYLK3)
T7 construct: purchased Eurofin/DiscoverX
T7 sequence (Q32MK0 whole entry): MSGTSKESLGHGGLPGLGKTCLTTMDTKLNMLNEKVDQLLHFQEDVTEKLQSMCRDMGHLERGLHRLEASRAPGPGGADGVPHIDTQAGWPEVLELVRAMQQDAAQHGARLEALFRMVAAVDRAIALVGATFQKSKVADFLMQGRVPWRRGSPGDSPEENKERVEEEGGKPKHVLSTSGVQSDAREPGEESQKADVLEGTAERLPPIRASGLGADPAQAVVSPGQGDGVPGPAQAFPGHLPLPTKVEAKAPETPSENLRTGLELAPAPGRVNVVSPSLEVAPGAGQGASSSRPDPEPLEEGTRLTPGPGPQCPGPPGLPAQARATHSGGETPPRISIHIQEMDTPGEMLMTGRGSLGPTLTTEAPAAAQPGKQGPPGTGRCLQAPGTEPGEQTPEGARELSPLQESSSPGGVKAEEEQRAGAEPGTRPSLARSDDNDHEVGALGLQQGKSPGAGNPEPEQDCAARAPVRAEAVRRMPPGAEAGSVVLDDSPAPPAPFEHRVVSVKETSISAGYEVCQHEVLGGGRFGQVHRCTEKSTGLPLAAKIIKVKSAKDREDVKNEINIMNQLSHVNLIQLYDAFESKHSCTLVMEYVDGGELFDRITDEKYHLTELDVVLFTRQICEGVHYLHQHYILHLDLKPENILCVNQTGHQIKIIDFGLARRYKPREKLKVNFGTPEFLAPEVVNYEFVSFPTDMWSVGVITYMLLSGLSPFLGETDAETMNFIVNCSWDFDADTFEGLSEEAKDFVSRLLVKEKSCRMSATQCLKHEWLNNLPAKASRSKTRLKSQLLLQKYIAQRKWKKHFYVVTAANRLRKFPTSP
In short: as §1

[8] = biological target: T8, 384 kinases from the human genome (Homo sapiens, UniProt Q9Y2U5); settings: kinase MAP3K2 (Entrez MAP3K2)
T8 construct: purchased Eurofin/DiscoverX
T8 sequence (Q9Y2U5 whole entry): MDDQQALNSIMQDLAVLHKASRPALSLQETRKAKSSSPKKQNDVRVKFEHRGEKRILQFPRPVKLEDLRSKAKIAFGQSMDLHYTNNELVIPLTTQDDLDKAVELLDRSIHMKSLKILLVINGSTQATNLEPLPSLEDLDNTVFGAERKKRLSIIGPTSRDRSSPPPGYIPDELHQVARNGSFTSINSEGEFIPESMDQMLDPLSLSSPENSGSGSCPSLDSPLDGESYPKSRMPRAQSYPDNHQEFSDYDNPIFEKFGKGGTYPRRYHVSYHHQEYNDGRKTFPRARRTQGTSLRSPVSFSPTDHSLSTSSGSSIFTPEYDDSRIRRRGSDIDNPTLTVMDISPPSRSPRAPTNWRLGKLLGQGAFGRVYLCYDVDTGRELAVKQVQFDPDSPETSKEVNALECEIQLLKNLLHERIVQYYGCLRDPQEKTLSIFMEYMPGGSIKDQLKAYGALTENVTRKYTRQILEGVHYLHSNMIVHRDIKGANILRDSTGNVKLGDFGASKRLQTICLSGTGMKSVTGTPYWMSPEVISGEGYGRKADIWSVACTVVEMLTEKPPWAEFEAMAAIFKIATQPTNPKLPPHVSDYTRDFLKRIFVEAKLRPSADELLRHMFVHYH
In short: as §1

[9] = biological target: T9, 384 kinases from the human genome (Homo sapiens, UniProt P51957); settings: kinase NEK4 (Entrez NEK4)
T9 construct: purchased Eurofin/DiscoverX
In short: as §1

[10] = biological target: T10, 384 kinases from the human genome (Homo sapiens, UniProt P27448); settings: kinase MARK3 (Entrez MARK3)
T10 construct: purchased Eurofin/DiscoverX
T10 sequence (P27448 whole entry): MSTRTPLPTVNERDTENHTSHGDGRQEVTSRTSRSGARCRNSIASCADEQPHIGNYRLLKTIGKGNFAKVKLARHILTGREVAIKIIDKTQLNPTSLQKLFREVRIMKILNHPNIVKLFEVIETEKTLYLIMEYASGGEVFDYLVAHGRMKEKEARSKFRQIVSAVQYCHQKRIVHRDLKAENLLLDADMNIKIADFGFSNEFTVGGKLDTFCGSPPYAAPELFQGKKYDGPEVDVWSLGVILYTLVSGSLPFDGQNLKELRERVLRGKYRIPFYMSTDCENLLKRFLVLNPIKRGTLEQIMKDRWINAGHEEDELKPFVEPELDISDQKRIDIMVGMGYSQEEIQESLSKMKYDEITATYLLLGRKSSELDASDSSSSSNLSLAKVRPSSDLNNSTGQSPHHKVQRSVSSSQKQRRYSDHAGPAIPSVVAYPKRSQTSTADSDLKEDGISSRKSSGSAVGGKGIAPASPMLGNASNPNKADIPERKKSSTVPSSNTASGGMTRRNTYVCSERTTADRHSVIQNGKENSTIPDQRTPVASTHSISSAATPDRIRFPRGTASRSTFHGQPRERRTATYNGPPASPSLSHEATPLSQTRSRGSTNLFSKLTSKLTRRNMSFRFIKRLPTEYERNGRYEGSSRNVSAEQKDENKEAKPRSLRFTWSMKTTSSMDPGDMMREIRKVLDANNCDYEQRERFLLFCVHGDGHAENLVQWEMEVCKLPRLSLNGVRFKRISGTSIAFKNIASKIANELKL
In short: as §1

[11] = biological target: T11, 384 kinases from the human genome (Homo sapiens, UniProt O15530); settings: kinase PDPK1 (Entrez PDPK1)
T11 construct: purchased Eurofin/DiscoverX
In short: as §1

[12] = biological target: T12, 384 kinases from the human genome (Homo sapiens, UniProt P51813); settings: kinase BMX (Entrez BMX)
T12 construct: purchased Eurofin/DiscoverX
In short: as §1

[13] = biological target: T13, 384 kinases from the human genome (Homo sapiens, UniProt P78362); settings: kinase SRPK2 (Entrez SRPK2)
T13 construct: purchased Eurofin/DiscoverX
In short: as §1

[14] = biological target: T14, 384 kinases from the human genome (Homo sapiens, UniProt Q12852); settings: kinase DLK (Entrez MAP3K12)
T14 construct: purchased Eurofin/DiscoverX
In short: as §1

[15] = biological target: T15, 384 kinases from the human genome (Homo sapiens, UniProt Q96L34); settings: kinase MARK4 (Entrez MARK4)
T15 construct: purchased Eurofin/DiscoverX
In short: as §1

[16] = biological target: T16, 384 kinases from the human genome (Homo sapiens, UniProt Q15759); settings: kinase p38-beta (Entrez MAPK11)
T16 construct: purchased Eurofin/DiscoverX
In short: as §1

[17] = biological target: T17, 384 kinases from the human genome (Homo sapiens, UniProt Q5VT25); settings: kinase MRCKA (Entrez CDC42BPA)
T17 construct: purchased Eurofin/DiscoverX
In short: as §1

[18] = biological target: T18, 384 kinases from the human genome (Homo sapiens, UniProt Q13554); settings: kinase CAMK2B (Entrez CAMK2B)
T18 construct: purchased Eurofin/DiscoverX
In short: as §1

[19] = biological target: T19, 384 kinases from the human genome (Homo sapiens, UniProt Q96SB4); settings: kinase SRPK1 (Entrez SRPK1)
T19 construct: purchased Eurofin/DiscoverX
In short: as §1

[20] = biological target: T20, 384 kinases from the human genome (Homo sapiens, UniProt Q8N5S9); settings: kinase CAMKK1 (Entrez CAMKK1)
T20 construct: purchased Eurofin/DiscoverX
In short: as §1

[21] = biological target: T21, 384 kinases from the human genome (Homo sapiens, UniProt Q04771); settings: kinase ACVR1 (Entrez ACVR1)
T21 construct: purchased Eurofin/DiscoverX
In short: as §1

[22] = biological target: T22, 384 kinases from the human genome (Homo sapiens, UniProt P22455); settings: kinase FGFR4 (Entrez FGFR4)
T22 construct: purchased Eurofin/DiscoverX
In short: as §1

[23] = biological target: T23, 384 kinases from the human genome (Homo sapiens, UniProt Q96NX5); settings: kinase CAMK1G (Entrez CAMK1G)
T23 construct: purchased Eurofin/DiscoverX
T23 sequence (Q96NX5 whole entry): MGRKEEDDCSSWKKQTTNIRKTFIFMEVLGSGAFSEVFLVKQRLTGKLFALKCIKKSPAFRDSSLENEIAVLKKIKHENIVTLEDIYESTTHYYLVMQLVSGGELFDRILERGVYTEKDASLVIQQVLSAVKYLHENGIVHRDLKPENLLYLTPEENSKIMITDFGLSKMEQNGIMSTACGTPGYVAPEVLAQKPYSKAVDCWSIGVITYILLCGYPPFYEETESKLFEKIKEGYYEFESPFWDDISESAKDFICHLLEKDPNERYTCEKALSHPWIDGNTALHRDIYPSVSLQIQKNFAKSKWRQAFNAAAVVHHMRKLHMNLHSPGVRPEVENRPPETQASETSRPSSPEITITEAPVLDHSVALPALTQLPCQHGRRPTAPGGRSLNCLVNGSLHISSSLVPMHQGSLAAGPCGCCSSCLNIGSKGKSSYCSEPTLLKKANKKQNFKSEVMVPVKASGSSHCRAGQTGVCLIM
In short: as §1

[24] = biological target: T24, 384 kinases from the human genome (Homo sapiens, UniProt P30291); settings: kinase WEE1 (Entrez WEE1)
T24 construct: purchased Eurofin/DiscoverX
In short: as §1

[25] = biological target: T25, 384 kinases from the human genome (Homo sapiens, UniProt Q8IVH8); settings: kinase MAP4K3 (Entrez MAP4K3)
T25 construct: purchased Eurofin/DiscoverX
T25 sequence (Q8IVH8 whole entry): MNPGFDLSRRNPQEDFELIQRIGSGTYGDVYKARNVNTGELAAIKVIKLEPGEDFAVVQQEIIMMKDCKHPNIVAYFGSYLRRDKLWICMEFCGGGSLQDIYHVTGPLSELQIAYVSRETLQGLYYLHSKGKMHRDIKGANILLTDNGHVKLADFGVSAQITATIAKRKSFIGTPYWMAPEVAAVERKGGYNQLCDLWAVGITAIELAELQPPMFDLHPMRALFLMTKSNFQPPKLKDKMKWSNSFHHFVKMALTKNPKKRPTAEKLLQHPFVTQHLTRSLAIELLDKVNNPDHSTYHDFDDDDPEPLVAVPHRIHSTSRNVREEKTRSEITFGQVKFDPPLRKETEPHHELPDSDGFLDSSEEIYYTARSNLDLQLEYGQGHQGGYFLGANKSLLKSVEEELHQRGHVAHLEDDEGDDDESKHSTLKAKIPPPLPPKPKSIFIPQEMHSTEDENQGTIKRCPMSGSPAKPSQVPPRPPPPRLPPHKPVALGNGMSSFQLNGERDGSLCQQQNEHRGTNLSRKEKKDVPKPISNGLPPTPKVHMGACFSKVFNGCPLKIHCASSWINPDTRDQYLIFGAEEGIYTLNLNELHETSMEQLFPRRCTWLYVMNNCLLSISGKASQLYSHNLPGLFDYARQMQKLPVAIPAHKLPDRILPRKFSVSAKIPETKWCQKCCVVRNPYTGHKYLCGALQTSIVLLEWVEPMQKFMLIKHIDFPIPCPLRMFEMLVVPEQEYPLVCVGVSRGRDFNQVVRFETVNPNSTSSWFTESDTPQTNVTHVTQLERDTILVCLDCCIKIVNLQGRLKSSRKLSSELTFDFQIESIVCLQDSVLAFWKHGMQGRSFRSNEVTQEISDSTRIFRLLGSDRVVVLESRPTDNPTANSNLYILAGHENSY
In short: as §1

[26] = biological target: T26, 384 kinases from the human genome (Homo sapiens, UniProt Q99755); settings: kinase PIP5K1A (Entrez PIP5K1A)
T26 construct: purchased Eurofin/DiscoverX
In short: as §1

## CC(C)C(=O)N1CCN(c2ccc(NC(=O)c3cc4ccccc4o3)cc2Cl)CC1 [Compound 21]
[1]
  Percent Control: 98%
[2]
  Percent Control: 100%
[3]
  Percent Control: 100%
[4]
  Percent Control: 100%
[5]
  Percent Control: 61%
[6]
  Percent Control: 94%
[7]
  Percent Control: 90%
[8]
  Percent Control: 99%
[9]
  Percent Control: 98%
[10]
  Percent Control: 100%
[11]
  Percent Control: 97%
[12]
  Percent Control: 68%
[13]
  Percent Control: 80%
[14]
  Percent Control: 100%
[15]
  Percent Control: 98%
[16]
  Percent Control: 80%
[17]
  Percent Control: 68%
[18]
  Percent Control: 100%
[19]
  Percent Control: 96%
[20]
  Percent Control: 100%
[21]
  Percent Control: 70%
[22]
  Percent Control: 91%
[23]
  Percent Control: 100%
[24]
  Percent Control: 98%
[25]
  Percent Control: 78%
[26]
  Percent Control: 100%
